Results reported in patent US7138246B2, “Methods for identifying or screening for agents that modulate 17β-HSD3” (Bristol-Myers Squibb Company, priority 2004, dated 2006).
Like-named read-outs stand apart in the source and are kept apart here.

Columns and labels:
[1] = target: T1, 17β-HSD3 (Homo sapiens, UniProt P37058); experiment: 17β-HSD3 scintillation proximity assay (SPA); type: biochemical; parameters: made in house; CHAPS-solubilised 100,000 x g supernatant
T1 sequence (P37058 1-310): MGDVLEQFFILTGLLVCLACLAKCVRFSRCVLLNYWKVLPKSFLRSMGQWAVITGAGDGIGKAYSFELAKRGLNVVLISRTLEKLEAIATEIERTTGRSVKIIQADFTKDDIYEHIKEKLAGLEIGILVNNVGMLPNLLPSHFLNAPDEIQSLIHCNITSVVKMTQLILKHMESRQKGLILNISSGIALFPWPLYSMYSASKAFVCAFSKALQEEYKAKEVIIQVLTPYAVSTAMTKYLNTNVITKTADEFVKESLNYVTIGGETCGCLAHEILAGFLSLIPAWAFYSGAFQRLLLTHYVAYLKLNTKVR
Method: (§1) HEK293/17β-HSD3 cells were harvested by scraping or treatment with Cell Dissociation Buffer (Invitrogen) and collected in ice cold Phosphate Buffered Saline (PBS) containing a protease inhibitor cocktail (Complete Tabs, Roche Diagnostics). The cells were then pelleted by centrifugation at 1000 rpm and washed once more in the same buffer. The cells were then resuspended in 2× the cell pellet volume with ice cold lysis buffer (40 mM Tris-HCl pH7.5, 2 mM DTT, 1 mM EDTA, 10% Glycerol (v/v), 0.5% CHAPS (w/v), 1M 1-(3-sulfopropyl)pyridinium hydroxide, Complete Tab(s)) and dounce homogenized on ice. The crude lysate was then incubated on ice for 60 minutes to allow for membrane protein solubilization, followed by centrifugation at 100,000×g for 60 minutes at 4° C. The supernatant was then removed and dialyzed overnight at 4° C. against the enzyme storage buffer (40 mM Tris-HCl pH 7.5, 40 mM KCl, 2 mM DTT, 1 mM EDTA, 20% Glycerol (v/v), Complete Tab(s)). Protein concentration was determined by the Bradford assay, the enzyme was aliquotted, and stored at −80° C. Activity was assessed using the SPA described below.
SPA beads conjugated to anti-mouse IgG were incubated overnight in SPA Bead Buffer (50 mM Tris pH 8.0, 10% Glycerol (v/v)), with anti-Testosterone monoclonal antibody (2 μg antibody per 1 mg of SPA beads) under gentle rotation. The antibody saturated bead complex was then spun down at 500 rpm for 10 minutes at 4° C. and the beads were resuspended in SPA Bead Buffer at a final concentration of 0.5 mg/160 μL. The anti-T/SPA Beads were then stored at 4° C. until needed. Enzymatic assays were conducted in 30 μL total reaction volumes in 96-well white Optiplates (Perkin Elmer). The reaction buffer consisted of 50 mM MES pH 6.0, 2 mM DTT, 0.1% CHAPS, 3 mM NADPH, 10% Glycerol (v/v), 850 nM 4-Androstene-3,17-Dione, and 50 nM [3H]4-Androstene-3,17-Dione (Specific Activity 70–110Ci/mmol). Compounds were diluted such that the final concentration of ethanol and DMSO would not exceed 3% (v/v) and 1% (v/v) respectively, corresponding to concentrations that had little or no effect on enzymatic activity (data not shown). Previously prepared and frozen 17β-HSD3 enzyme was diluted into ice cold buffer containing 50 mM Mes, 40 mM KCl, 2 mM DTT, 1 mM EDTA, and 10% glycerol (v/v) and added last to the reaction mixture. The reaction was allowed to proceed for 60 minutes at room temperature and was stopped by the addition of 10 μL of 0.1N HCl. After the reactions were stopped, an excess of the anti-T/SPA Beads (0.5 mg) were added to each well to a final volume of 200 μL. The plates were sealed and shaken at ˜200 rpm on an orbital shaker at room temp for at least 90 minutes or overnight at 4° C. After allowing the beads to settle, the amount of [3H]Testosterone produced in each well was determined by scintillation counting on a Perkin Elmer TopCount instrument and collected as DPMs. The data was then analyzed and percent inhibition and/or IC50 values, based on 10 point serially diluted curves in duplicate or triplicate, were calculated using Microsoft Excel and XLFit programs. […] Input samples and unbound supernatants, from the enzymatic reactions, were quantitated by scintillation counting to aid in the calculation of bound versus free testosterone produced. Km values were calculated using the Lineweaver-Burke formula and plots where 1/v=(Km+[s])/(Vmax [s]). […]

[2] = target: T1, 17β-HSD3; experiment: 17β-HSD3 SEAP assay (PSA reporter) in MDA MB 453/17β-HSD3 cells; type: cell-based; parameters: expressed in transfected cells
Method: Cultured MDA MB 453/17β-HSD3 cells were trypsinized, spun at 1000 rpm for 10 minutes, and resuspended in DMEM/10% cFBS supplemented with 5 mM BES at a concentration of 4×10^7 cells per mL. The cells (aliquots of 1×10^7 cells) were then transiently transfected with 3 μg of the PSA-SEAP construct by electroporation at 0.22 kVolts and 960 μFD with a time constant of […]. After a short recovery period, the cells were spun down and resuspended in DMEM/10% cFBS and plated into 96-well tissue culture plates (5×10^5 cells per well in 50 μL). After overnight adherence, the compounds were diluted in DMEM/10% and cFBS was added to the cells. 24 hours later, the medium was removed, fresh media containing the compounds was added in the presence of 10 nM Androstenedione, and this mixture was allowed to incubate for 24 hours. 25 μL of the culture supernatant was then removed and plated into 96-well black Optiplates (Perkin Elmer) for SEAP measurement as described by the reagent manufacturer (Tropix). Briefly, the supernatant was heat inactivated at 65° C. for 30 minutes and then allowed to cool to room temperature. Assay buffer (25 μL, Tropix) was then added and allowed to mix for 5 minutes followed by the addition of the Reaction buffer (25 μL, Tropix) and the plates were then incubated for 20 minutes in the dark. Plates were then read using a Packard Instruments TopCount with luminescent detection and signal was captured for 10 seconds per well and photon emission (cps) was averaged. A standard MTS assay (Promega) as described by the manufacturer, was performed in parallel to normalize the data based on cell numbers. Data analysis including percent inhibition and IC50 determination, based on 10 point serially diluted curves in duplicate, was then performed using Microsoft Excel and XLFit.
The analysis of 17β-HSD3 steroid conversion by TLC is hampered by the limitation to examine large numbers of compounds. […] To test this system, a prostate specific antigen (PSA) reporter plasmid was transfected into MDA-MB453 cells stably expressing 17β-HSD3 and stimulated with different concentrations of androstenedione (FIG. 5B).
To evaluate the suitability of this cellular assay for monitoring 17β-HSD3 cell based activity, the inhibitory effects of 18β-glycyrrhetinic acid and […] were examined.

[3] = target: T1, 17β-HSD3; parameters: made in house; CHAPS-solubilised 100,000 x g supernatant; conditions: read-out: Km for androstenedione, previously published value; human 17β-HSD3 prepared from testes microsomal fractionation; cited from earlier work
[4] = substrate: C[C@]12CCC(=O)C=C1CC[C@@H]1[C@@H]2CC[C@]2(C)C(=O)CC[C@@H]12; experiment: 17β-HSD3 scintillation proximity assay (SPA); type: biochemical, human; conditions: other: 17β-HSD3 from HEK293 transfectants; 0.01 to 10 μM input androstenedione; 3 mM NADPH
Method: as §1, with “The crude lysate was then incubated on ice for 60 minutes to allow for membrane protein solubilization, followed by centrifugation at 100,000×g for 60 minutes at 4° C. The supernatant was then removed and dialyzed overnight at 4° C. against the enzyme storage buffer (40 mM Tris-HCl pH 7.5, 40 mM KCl, 2 mM DTT, 1 mM EDTA, 20% Glycerol (v/v), Complete Tab(s)).” left out
SPA beads conjugated to anti-mouse IgG were incubated overnight in SPA Bead Buffer (50 mM Tris pH 8.0, 10% Glycerol (v/v)), with anti-Testosterone monoclonal antibody (2 μg antibody per 1 mg of SPA beads) under gentle rotation. […] After allowing the beads to settle, the amount of [3H]Testosterone produced in each well was determined by scintillation counting on a Perkin Elmer TopCount instrument and collected as DPMs. The data was then analyzed and percent inhibition and/or IC50 values, based on 10 point serially diluted curves in duplicate or triplicate, were calculated using Microsoft Excel and XLFit programs. […]

NC(=O)C1=CN([C@@H]2O[C@H](COP(=O)(O)OP(=O)(O)OC[C@H]3O[C@@H](n4cnc5c(N)ncnc54)[C@H](OP(=O)(O)O)[C@@H]3O)[C@@H](O)[C@H]2O)C=CC1 [NADPH]
Km ([1]; Lineweaver-Burke plots, read-out: Km for NADPH): 30 µM

C[C@]12CCC(=O)C=C1CC[C@@H]1[C@@H]2CC[C@]2(C)C(=O)CC[C@@H]12 [androstenedione]
induction of PSA reporter [2]: 9 fold
activation of PSA reporter ([2]; 12 nM androstenedione, 17β-HSD3-MDA-MB453 transfectants): 9 fold
induction of PSA reporter ([2]; 1 μM androstenedione, 17β-HSD3-MDA-MB453 cells): 25 fold
Km [3]: 0.72 µM

CC(C)(O)C(=O)Nc1ccc([N+](=O)[O-])c(C(F)(F)F)c1 [hydroxyflutamide]
17β-HSD3 inhibitory activity in the SPA ([1]; FIG. 3B): did not display 17β-HSD3 inhibitory activity

B1: human 17β-HSD3 (Homo sapiens) (protein)
chain: T1 sequence (P37058 1-310)
notes: made in house; CHAPS-solubilised 100,000 x g supernatant
Km [4]: 0.92 µM
